Measurements reported in paper PMC6027433, “Synthesis, Evaluation of Cytotoxicity and Molecular Docking Studies of the 7-Acetamido Substituted 2-Aryl-5-bromo-3-trifluoroacetylindoles as Potential Inhibitors of Tubulin Polymerization” (Pharmaceuticals, 2018).

How the values were obtained:
[1] = tested on: A549 cells; test: Other apoptotic features (PS translocation, cell cycle arrest, mitochondrial membrane depolarization), A549; assay type: cell-based, human; conditions: after 24 h (data not included)
Procedure: (§1) Several distinctive mechanisms of cancer cell death such as apoptosis, necrosis, autophagy and cornification have been identified, and these are characterized by differences in morphology and biochemical changes. A major biochemical feature of apoptosis is the activation of caspases, which plays a central role in the morphological changes associated with apoptosis. Caspase activation was determined using immunochemical methods and the antibodies against activated caspase 8 and caspase 3. […] Activated caspase 8 can be used as a convenient indicator of involvement of the extrinsic death receptor pathway of apoptosis. Executioner caspases including caspase 3 are, in turn, activated by the initiator caspases. This protein is either partially or totally responsible for the cleavage of many key proteins such as PARP, DNA protein kinases and retinoblastoma protein [25]. […] This was true for both activated caspase 8 and 3. A more distinct increase was evident with caspase 3 albeit less pronounced than that of 4c and the increase was expected as caspase 3 is activated by initiator caspase including caspase 8, which is a later event in apoptosis. […] We also evaluated compound 5g for potential to induce other key apoptotic biochemical features such as phosphatidylserine (PS) translocation, cell cycle arrest and mitochondrial membrane depolarization.

[2] = tested on: lung cancer (A549) cells; test: MTT dose response cytotoxicity, A549; assay type: cell-based; conditions: Homo sapiens, 48 h
Procedure: (§2) Cells were seeded as described in above. […] The medium was aspirated and replaced with 200 μL fresh medium containing the dilution of the respective test compound. The test sample were added to each well and the plates were incubated for a further 48 h at 37 °C under 5% CO2 atmosphere in a humidified incubator. After this incubation period, the medium was removed and then replaced with 100 μL fresh culture medium containing MTT at a final concentration of 0.5 mg/mL. The 96-well plates were returned to the incubator and incubated for an additional 3 h. The medium was removed and the MTT crystals were solubilized in 100 μL DMSO and the absorbance was measured at 560 nm using a Labsystems Multiwell Scanning spectrophotometer (Thermo Fischer Scientific, Edenvale, South Africa).
(§3) Quantification of live and dead cells for the screening assay was performed using the ImageXpress Micro XLS Widefield Microscope and acquired images analysed using the MetaXpress software and Multi-Wavelength Cell Scoring Application Module. Acquired data was transferred to an EXCEL spreadsheet and relative cell viability was determined using quadruplicate wells for each concentration. Untreated cells were considered to have 100% cell viability (i.e., the mean OD of the untreated wells = 100% viability). Cell viabilities in other test wells were calculated relative to the untreated control and expressed as a percentage. Dose response analysis was performed using the statistical software GraphPad Prism and IC50 values calculated from the concentration-response data using a mathematical Hill function.

[3] = tested on: A549 cells; test: Caspase 8 and 3 activation (immunochemical), A549; assay type: cell-based, human; conditions: 24 h exposure at IC50 values
Procedure: (§4) Several distinctive mechanisms of cancer cell death such as apoptosis, necrosis, autophagy and cornification have been identified, and these are characterized by differences in morphology and biochemical changes. A major biochemical feature of apoptosis is the activation of caspases, which plays a central role in the morphological changes associated with apoptosis. Caspase activation was determined using immunochemical methods and the antibodies against activated caspase 8 and caspase 3. […] Activated caspase 8 can be used as a convenient indicator of involvement of the extrinsic death receptor pathway of apoptosis. Executioner caspases including caspase 3 are, in turn, activated by the initiator caspases. This protein is either partially or totally responsible for the cleavage of many key proteins such as PARP, DNA protein kinases and retinoblastoma protein [25]. […] This was true for both activated caspase 8 and 3. A more distinct increase was evident with caspase 3 albeit less pronounced than that of 4c and the increase was expected as caspase 3 is activated by initiator caspase including caspase 8, which is a later event in apoptosis. […] Prolonged treatment of the cells with compounds 5e–h for 48 h or more, for example, would probably result in significant effects. We also evaluated compound 5g for potential to induce other key apoptotic biochemical features such as phosphatidylserine (PS) translocation, cell cycle arrest and mitochondrial membrane depolarization.
(§5) Compounds 4c and 5g were selected for mechanism studies and these test compounds were reconstituted in dimethyl sulphoxide (DMSO) to give a final concentration of 40 mM. Samples were stored at 4 °C until required. […]
(§6) Quantification of live and dead cells for the assay was performed using the ImageXpress Micro XLS Widefield Microscope and acquired images analysed using the MetaXpress software and Multi-Wavelength Cell Scoring Application Module and the Cell Cycle Module. Acquired data was transferred to an EXCEL spreadsheet and data was analysed and processed.

[4] = tested on: HeLa cells; test: Caspase 8 and 3 activation (immunochemical), HeLa; assay type: cell-based, human; conditions: 24 h exposure at IC50 values
Procedure: as §4, §5, §6

[5] = tested on: cervical cancer (HeLa) cells; test: MTT dose response cytotoxicity, HeLa; assay type: cell-based; conditions: Homo sapiens, 48 h
Procedure: as §2, §3

[6] = tested on: HeLa cells; test: Other apoptotic features (PS translocation, cell cycle arrest, mitochondrial membrane depolarization), HeLa; assay type: cell-based, human; conditions: after 24 h (data not included)
Procedure: as §1

[7] = tested on: neurotesin receptor type 2 (NTS2); set-up: method as in PMID 25157640; conditions: cited from earlier work

SMILES | PS translocation, cell cycle arrest and mitochondrial membrane depolarization [1] | IC50 [2] | Caspase 8 and 3 activation (% change in mean integrated fluorescence intensity of the untreated control) [3] | Caspase 8 and 3 activation (% change in mean integrated fluorescence intensity of the untreated control) [4] | IC50 [5] | PS translocation, cell cycle arrest and mitochondrial membrane depolarization [6] | fold more active than the expected C-3 unsubstituted analogue ([7]; NTS2) | IC50 [7]
CC(=O)Nc1cc(Br)cc2c(C(=O)C(F)(F)F)c(-c3cccc(Cl)c3)[nH]c12 [Compound 5g, N-[5-Bromo-2-(3-chlorophenyl)-3-trifluoroacetyl-1H-indol-7-yl]acetamide] | failed to induce | 2720 ± 430 nM | expected increase | decrease | 8740 ± 940 nM | failed to induce | – | –
Cc1ccc(S(=O)(=O)Nc2ccc3c(c2)c(C(=O)C(F)(F)F)cn3CC(=O)N[C@@H](CC(C)C)C(=O)O)cc1 [NTRC-824, N-[(5-{[(4-methylphenyl)sulfonyl]amino}-3-(trifluoroacetyl)-1H-indol-1-yl)acetyl]-L-leucine] | – | – | – | – | – | – | 90 fold | 38 nM
